pIC50: −log10 of the molar value.
Legend:
[1] = test system: human umbilical vascular endothelial (HUVE) cells; assay: Tube formation of HUVE cells on Matrigel; assay type: cell-based; details: for tube formation, quantitative analysis of mean tube length: cultured with VEGF in the basal EBM2 medium (FIG. 12)
Procedure: The effect of an agent on tube formation of HUVE cells was determined by a procedure described in Grant D S, Kinsella J L, Kibbey M C, LaFlamme S, Burbelo P D, Goldstein A L, Kleinman H K “Matrigel induces thymosin beta 4 gene in differentiating endothelial cells.” J Cell Sci. 1995, 108:3685-94, the teachings of which are incorporated by reference.
Briefly, HUVE cells (10^4 cells/150 μl of EBM-2) were plated on Matrigel™ (BD biosciences) and incubated for 12-16 hrs in the presence of VEGF (20 ng/ml) and the test compound. Tube formation was assessed in 10 random fields (4×).

[2] = test system: human umbilical vascular endothelial (HUVE) cells; assay: HUVE cell growth (BrdU incorporation); assay type: cell-based; details: for growth of HUVE cells (BrdU incorporation): 0, 200, 1000 and 2000 nM (FIG. 3B); for BrdU incorporation: 1 μM (FIG. 3A); for doses that inhibited BrdU incorporation: FIGS. 3A & 3B; for HUVE cell growth induced by PDGF / HUVE cell growth induced by VEGF / HUVE cell growth induced by bFGF: concentration not given
Procedure: Incorporation of 5-bromo-2′-deoxyuridibe (BrdU) is a common method used to detect the DNA replication in actively proliferating cells. Inhibition of cell growth is inferred by the decrease of BrdU incorporation into the cells. […] The assay can be preformed in the presence or absence of growth factors such as VEGF, bFGF and PDGF. This assay was performed by a procedure described in Huang S, Chen C S, Ingber D E. “Control of cyclin D1, p 27(Kip1), and cell cycle progression in human capillary endothelial cells by cell shape and cytoskeletal tension.” Mol Biol Cell. 1998, 9:3179-93, the teachings of which are incorporated herein by reference.

[3] = test system: human umbilical vascular endothelial (HUVE) cells; assay: HUVE cell migration, transwell migration assay stimulated by VEGF; assay type: cell-based; details: for HUVE cell migration: 20 ng/ml VEGF
Procedure: Cell migration is an important aspect of angiogenesis. The effect of the test compounds on HUVE cell motility as stimulated by VEGF was examined using a transwell migration assay. This assay was performed by a similar procedure described in Shimizu A, Mammoto A, Italiano J E Jr, Pravda E, Dudley A C, Ingber D E, Klagsbrun M. “ABL2/ARG tyrosine kinase mediates SEMA3F-induced RhoA inactivation and cytoskeleton collapse in human glioma cells.” J. Biol. Chem. 2008, 283:27230-8, the teaching of which are incorporated by reference.
Briefly, transwell membranes (Coster, N.Y.) were coated with 0.5% gelatin, and cells were seeded (10^5 cells/100 μl) with 0.3% FBS/EBM2. The test compound was added to the both sides of the chamber. Cells were stained with Giemsa solution 16 hours later, and counted in 10 random fields (×400).

[4] = test system: human umbilical vascular endothelial (HUVE) cells; assay: Compound toxicity in HUVE cells (morphology after 24 h culture); assay type: cell-based; details: 50-2000 nM, 5% FBS/EGM2 media
Procedure: HUVE cells were cultured for 24 hours on standard tissue culture dishes in the presence of EJC 1-6 over a range of concentration (50-2000 nM). […] (FIGS. 1 and 2).

[5] = test system: developing vasculature of the newborn mouse retina; assay: In vivo screening assay for inhibitors of retinal angiogenesis (intravitreous injection, newborn mice); details: for retinal vessel formation: 5 nmol single injection
Source text: Blood vessel formation is critical for organ formation in the body. Compounds that inhibit angiogenesis within specific tissue types have therapeutic potential. For example, compounds that are effective in the retina may be used for the treatment of many types of blindness and other opthalmological diseases. Therefore, an in vivo method to screen for compounds that inhibit the growing vascular networks within the developing whole retina in eyes of living newborn mice was developed.
To screen in vivo in the eye for inhibitors of retinal angiogenesis, we adapted and modified the system described in Mammoto, A., Connor, K. M., Mammoto, T., Yung, C. W., Huh, D., Aderman, C. M., Mostoslaysky, G., Smith, L. E. H., & Ingber, D. E. A mechanosensitive transcriptional mechanism that controls angiogenesis. Nature 457, 1103-1108 (2009); and Shih, S. C., Ju, M., Liu, N. & Smith, L. E. Selective stimulation of VEGFR-1 prevents oxygen-induced retinal vascular degeneration in retinopathy of prematurity. J. Clin. Invest. 112, 50-7 (2003), the teachings of both are incorporated herein by reference. This assay was performed by a procedure described in Chen J, Connor K M, Aderman C M, Smith L E. “Erythropoietin deficiency decreases vascular stability in mice.” J. Clin. Invest. 2008, 118:526-33, the teachings of which are incorporated herein by reference.
After intraperitoneal injection of Avertin (125-240 mg/kg), the eyelid of mice was opened in a gentle manner by using tiny sterile blunt forceps. Test compound was injected into the vitreous of one eye of the mouse and a vehicle was injected into the other eye of the same mouse at either P6 or P14. Injections were performed by inserting an Exmire microsyringe (MS-NE05, ITO Corp. Fuji, Japan) into the vitreous 1 mm posterior to the corneal limbus. Pupils were dilated with 1% tropicamide. Insertion and the injection (0.3-0.5 μL solution) were directly viewed through an operating microscope, taking care not to injure the lens or the retina. The time points for intravitreous injection were set at P6 and P14 because these stages represent distinct developmental stages during vascular network formation. Blood vessels start spreading over the surface of retinal tissue at early times (P4-P6), then these distributed blood vessels start migrating into the deeper layer of the retina to make a three-dimensional vascular network at later times (P6-P14). Thus, using this approach, screening for inhibitors of initiation of angiogenesis at early times, and agents that induce regression of preexisting capillary vessels at the later time point can be identified.
After injection, the eyelid was treated with bacitracin eye antibiotic ointment, and eyelids naturally reformed after the procedure. Vascular network formation in the retina was assessed two days after injection using flat-mounted, fluorescein-conjugated isolectin-staining and immunohistochemical analysis. Quantification of vessel density was performed with Adobe photoshop.

[6] = 50 nM, cultured with VEGF in the basal EBM2 medium

SMILES: CN(C)[C@@H]1CC[C@H]2[C@@H](CC[C@@H]3[C@@H]2CC[C@]2(C)C(c4ccc5ccncc5c4)=CC[C@@H]32)C1 [EJC-1]
- tube formation ([1]; 2 μM): inhibited
- growth of HUVE cells (BrdU incorporation) [2]: inhibit the growth
- BrdU incorporation [2]: inhibit
- doses that inhibited BrdU incorporation [2]: greater than 1 μM
- HUVE cell migration ([3]; 200 nM test compound): exhibited inhibitory activity
- HUVE cell migration ([3]; 1 μM (1000 nM) test compound): inhibit
- HUVE cell migration ([3]; 2000 nM test compound): inhibit
- morphological change of HUVE cells [4]: No morphological change

SMILES: CN(C)[C@H]1CC[C@H]2[C@@H](CC[C@@H]3[C@@H]2CC[C@]2(C)C(c4ccc5ccncc5c4)=CC[C@@H]32)C1 [EJC-2]
- tube formation ([1]; 200 nM, cultured with VEGF in the basal EBM2 medium): inhibited
- tube formation ([1]; 2 μM): inhibited
- retinal angiogenesis, morphological analysis ([5]; 5-10 nmol in a single injection): appeared to inhibit retinal angiogenesis based on morphological analysis, but the sampling numbers were low and significant effects were not observed
- growth of HUVE cells (BrdU incorporation) [2]: inhibit the growth
- BrdU incorporation [2]: inhibit
- doses that inhibited BrdU incorporation [2]: > 200 nM
- HUVE cell migration ([3]; 200 nM test compound): exhibited inhibitory activity
- HUVE cell migration ([3]; 1 μM (1000 nM) test compound): inhibit
- morphological change of HUVE cells [4]: No morphological change

SMILES: CN(C)[C@H]1CC[C@H]2[C@@H](CC[C@@H]3[C@@H]2CC[C@]2(C)[C@@H](c4ccc5ccncc5c4)CC[C@@H]32)C1 [EJC-07]
- HUVE cell migration ([3]; 200 nM test compound): active

SMILES: CN1CCc2ccc([C@H]3CC[C@H]4[C@@H]5CC[C@H]6C[C@@H](N(C)C)CC[C@@H]6[C@H]5CC[C@]34C)cc2C1 [EJC-8]
- HUVE cell migration ([3]; 50 nM test compound): inhibit

SMILES: CN1CCc2ccc(C3=CC[C@H]4[C@@H]5CC[C@H]6C[C@@H](N(C)C)CC[C@@H]6[C@H]5CC[C@]34C)cc2C1 [EJC-9]
- tube formation [1, 6]: significant inhibition
- tube formation, quantitative analysis of mean tube length ([1]; 50 nM): inhibit
- HUVE cell migration ([3]; 50 nM test compound): not active
- HUVE cell migration ([3]; 200 nM test compound): not active

SMILES: CN(C)[C@H]1CC[C@H]2[C@@H](CC[C@@H]3[C@@H]2CC[C@]2(C)C(c4ccc5cnccc5c4)=CC[C@@H]32)C1 [EJC-10]
- tube formation [1, 6]: significant inhibition
- tube formation, quantitative analysis of mean tube length ([1]; 50 nM): inhibit
- retinal vessel formation ([5]; p6 mice): did not inhibit retinal vessel formation completely
- retinal vessel formation ([5]; p14 mice): did not inhibit retinal vessel formation completely
- vessel density in the retina compared to control ([5]; single dose of 500 pmol, p6 mice (FIG. 13)): decreases
- retinal angiogenesis ([5]; single injection of 500 pmol, p6 mice): inhibited
- pIC50 ([2]; Homo sapiens, in the presence of PDGF, read-out: IC50, cell growth induced by PDGF): 7.10
- pIC50 ([2]; Homo sapiens, in the presence of VEGF, read-out: IC50, cell growth induced by VEGF): 7.78
- pIC50 ([2]; Homo sapiens, in the presence of bFGF, read-out: IC50, cell growth induced by bFGF): 7.19
- pIC50 ([2]; Homo sapiens, media absent an exogenous growth factor, read-out: IC50, growth of HUVE cells): 7.24
- HUVE cell growth induced by PDGF [2]: inhibited
- HUVE cell growth induced by VEGF [2]: inhibited
- HUVE cell growth induced by bFGF [2]: inhibited
- pIC50 ([2]; in the presence of PDGF, read-out: IC50, cell growth induced by PDGF): 7.10
- pIC50 ([2]; in the presence of bFGF, read-out: IC50, cell growth induced by bFGF): 7.19
- HUVE cell migration ([3]; 50 nM test compound): inhibit
- pIC50 ([3]; Homo sapiens, VEGF-stimulated, transwell, read-out: cell migration inhibition IC50): 7.15

SMILES: CN(C)[C@H]1CC[C@H]2[C@@H](CC[C@@H]3[C@@H]2CC[C@]2(C)C(c4ccc5ncccc5c4)=CC[C@@H]32)C1 [EJC-11]
- HUVE cell migration ([3]; 50 nM test compound): moderately active

SMILES: CN(C)[C@H]1CC[C@H]2[C@@H](CC[C@@H]3[C@@H]2CC[C@]2(C)C(c4cccc5cnccc45)=CC[C@@H]32)C1 [EJC-12]
- HUVE cell migration ([3]; 50 nM test compound): inhibit

SMILES: CN(C)[C@H]1CC[C@H]2[C@@H](CC[C@@H]3[C@@H]2CC[C@]2(C)C(c4cccc5ncccc45)=CC[C@@H]32)C1 [EJC-13]
- HUVE cell migration ([3]; 50 nM test compound): moderately active

SMILES: CN(C)[C@H]1CC[C@H]2[C@@H](CC[C@@H]3[C@@H]2CC[C@]2(C)C(c4cccnc4)=CC[C@@H]32)C1 [EJC-14]
- retinal vessel formation ([5]; p6 mice): did not inhibit
- retinal vessel formation ([5]; p14 mice): did not inhibit
- cell growth induced by VEGF ([2]; 50 nM): inhibited
- HUVE cell growth induced by PDGF [2]: only at higher concentrations and not
- HUVE cell growth induced by VEGF [2]: inhibited
- HUVE cell growth induced by bFGF [2]: only at higher concentrations and not
- HUVE cell migration ([3]; 50 nM test compound): inhibit

SMILES: CN(C)[C@H]1CC[C@H]2[C@@H](CC[C@@H]3[C@@H]2CC[C@]2(C)C(c4ccncc4)=CC[C@@H]32)C1 [EJC-15]
- HUVE cell migration ([3]; 50 nM test compound): inactive

SMILES: C[C@]12CC[C@H]3[C@@H](CC[C@H]4C[C@@H](N5CCCC5)CC[C@@H]43)[C@@H]1CC=C2c1ccc2ccncc2c1 [EJC-21]
- HUVE cell migration ([3]; 50 nM test compound): did not inhibit

SMILES: C[C@]12CC[C@H]3[C@@H](CC[C@H]4C[C@@H](N5CCCC5)CC[C@@H]43)[C@@H]1CC=C2c1ccc2cnccc2c1 [EJC-22]
- HUVE cell migration ([3]; 50 nM test compound): did not inhibit

SMILES: C[C@]12CC[C@H]3[C@@H](CC[C@H]4C[C@@H](N5CCOCC5)CC[C@@H]43)[C@@H]1CC=C2c1ccc2ccncc2c1 [EJC-23]
- HUVE cell migration ([3]; 50 nM test compound): did not inhibit

SMILES: C[C@]12CC[C@H]3[C@@H](CC[C@H]4C[C@@H](N5CCOCC5)CC[C@@H]43)[C@@H]1CC=C2c1ccc2cnccc2c1 [EJC-24]
- HUVE cell migration ([3]; 50 nM test compound): did not inhibit

From patent publication US20120190659A1, “ANGIOGENESIS INHIBITORS” (Children's Medical Center Corporation, priority 2009, published 2012)
